Reference: the Deep4Chem optical property database
One block for each compound: values may come before it.

Test: solvent given as SMILES

absorption maximum (in ClC(Cl)Cl): 485 nm
SMILES: CCCCCCCCCCCCOc1cc2c3cc(OCCCCCCCCCCCC)c(OCCCCCCCCCCCC)cc3c3c(cc(OCCCCCCCCCCCC)c4nc5cc(C#Cc6ccc(OCCCC)cc6)c(C#Cc6ccc(OCCCC)cc6)cc5nc43)c2cc1OCCCCCCCCCCCC

SMILES: COc1ccccc1-c1nc2c3ccccc3c3ccccc3c2o1
absorption maximum (in Cc1ccccc1): 364 nm

absorption maximum (in CC#N): 393 nm | absorption maximum (in CO): 395 nm | absorption maximum (in ClCCl): 396 nm
SMILES: COc1cccc(-c2[nH]c(=O)n3c2-c2ccccc2C3=O)c1O

absorption maximum (in ClCCl): 339 nm
SMILES: CCOC(=O)c1c(-c2cc3ccc(OCC=C(C)C)cc3oc2=O)nn(-c2cccc(Cl)c2)c1C(=O)OCC

SMILES: O=S(=O)(c1cccc(N2c3ccccc3Oc3ccccc32)c1)c1cccc(N2c3ccccc3Oc3ccccc32)c1
absorption maximum (in C1CCOC1): 317 nm | absorption maximum (in Cc1ccccc1): 308 nm | absorption maximum (in ClC(Cl)Cl): 315 nm

SMILES: CI
absorption maximum (in CCCCCC): 259 nm

absorption maximum (in C1CCOC1): 431 nm | absorption maximum (in CC#N): 431 nm | absorption maximum (in ClC(Cl)Cl): 436 nm | absorption maximum (in ClCCl): 431 nm
SMILES: COc1cc(/C=C/c2nc3ccccc3o2)c(OC)cc1/C=C/c1nc(C)nc(/C=C/c2cc(OC)c(/C=C/c3nc4ccccc4o3)cc2OC)n1

absorption maximum (in C1CCOC1): 328 nm | absorption maximum (in CCCCCC): 328 nm | absorption maximum (in CCO): 328 nm | absorption maximum (in CS(C)=O): 330 nm
SMILES: Cc1ccc(-c2cc3ccccc3oc2=O)cc1

absorption maximum (in CC#N): 350.79 nm
SMILES: C[n+]1ccn(CCCCc2ccc3c(c2)c2ccccc2n3-c2cc(C#N)c(C#N)cc2F)c1

absorption maximum (in CCOC(C)=O): 347 nm
SMILES: CCCCCCCCCCCCOc1ccc(C#CC(C#Cc2ccc(OCCCCCCCCCCCC)cc2)=Cc2cc(C=C(C#Cc3ccc(OCCCCCCCCCCCC)cc3)C#Cc3ccc(OCCCCCCCCCCCC)cc3)cc(C=C(C#Cc3ccc(OCCCCCCCCCCCC)cc3)C#Cc3ccc(OCCCCCCCCCCCC)cc3)c2)cc1

absorption maximum (in ClC(Cl)Cl): 695 nm | absorption maximum (in ClCCl): 695 nm
SMILES: COc1ccc2cc(C3=[N+]4C(=Nc5c(-c6ccccc6)cc(-c6ccc7cc(OC)ccc7c6)n5[B-]4(F)F)C(c4ccccc4)=C3Br)ccc2c1

absorption maximum (in ClCCl): 467 nm
SMILES: COc1ccc(/C=C/C2=C3CCc4ccccc4C3=[O+][B-](F)(F)O2)cc1

SMILES: COc1ccc(-c2cc(-c3ccc(OC)cc3)c3c(N)nc(N4CCCC4)c(C#N)c3n2)cc1
absorption maximum (in CC#N): 416 nm | absorption maximum (in CC(C)=O): 416 nm | absorption maximum (in CC(C)O): 412 nm | absorption maximum (in CO): 412 nm | absorption maximum (in ClC(Cl)Cl): 420 nm | absorption maximum (in ClCCl): 418 nm | absorption maximum (in c1ccccc1): 420 nm

SMILES: Cc1ccc([B-]2(c3ccc(C)cc3)n3nc(C(F)(F)F)cc3-c3c4ccccc4cc[n+]32)cc1
absorption maximum (in C1CCCCC1): 377 nm | absorption maximum (in Cc1ccccc1): 377 nm | absorption maximum (in ClCCl): 373 nm

SMILES: CC(C)(C)c1ccc2c(c1)sc1[n+]2[B-](F)(F)n2c(c3cccc4c(Br)ccc2c43)=C1C#N
absorption maximum (in C1CCOC1): 539 nm | absorption maximum (in CC#N): 532 nm | absorption maximum (in CCCCCC): 542 nm | absorption maximum (in Cc1ccccc1): 543 nm | absorption maximum (in ClCCl): 538 nm

SMILES: CCCCCCCCCCCCn1cccc1/C=C/c1cc(OCCCC)c(/C=C/c2cccn2CCCCCCCCCCCC)cc1OCCCC
absorption maximum (in Cc1ccccc1): 411 nm

absorption maximum (in CCO): 595 nm | absorption maximum (in ClC(Cl)Cl): 608 nm | absorption maximum (in ClCCl): 607 nm
SMILES: CCN(CC)c1ccc2c(-c3ccccc3C(=O)O)c3c([o+]c2c1)/C(=C/Nc1ccccc1)CCC3

SMILES: O=C1c2cccc3c(NCc4ccccn4)c4ccccc4c(c23)C(=O)N1Cc1ccccn1
absorption maximum (in C1CCOC1): 520 nm | absorption maximum (in CCCCCC): 497 nm | absorption maximum (in CCO): 533 nm | absorption maximum (in Cc1ccccc1): 517 nm | absorption maximum (in ClCCl): 527 nm

absorption maximum (in ClC(Cl)Cl): 506 nm
SMILES: CC1=CC(C)=[N+]2C1=C(c1ccc(I)cc1)c1c(C)cc(C)n1[B-]2(Oc1ccccc1)Oc1ccccc1

SMILES: CCC1(CC)c2ccccc2-c2c1c1c(c3c2C(CC)(CC)c2cc(B(c4c(C)cc(C)cc4C)c4c(C)cc(C)cc4C)ccc2-3)C(CC)(CC)c2cc(B(c3c(C)cc(C)cc3C)c3c(C)cc(C)cc3C)ccc2-1
absorption maximum (in C1CCOC1): 364 nm | absorption maximum (in CC#N): 359 nm | absorption maximum (in CC(C)=O): 360 nm | absorption maximum (in CCCCCC): 362 nm | absorption maximum (in ClC(Cl)Cl): 362 nm

absorption maximum (in ClC(Cl)Cl): 485 nm
SMILES: N#Cc1nc(N(Cc2ccccc2Br)Cc2ccccc2Br)c(C#N)nc1N(Cc1ccccc1Br)Cc1ccccc1Br

absorption maximum (in ClCCl): 430 nm
SMILES: CCCCCCCCCCCCN1C(=O)c2c(c3ccc4cc(-c5ccc(Cl)cc5)c(OC)cc4c3c3c2ccc2cc(-c4ccc(Cl)cc4)c(OC)cc23)C1=O

absorption maximum (in ClCCl): 309 nm
SMILES: N#Cc1ccc(N2c3c(sc4ccccc34)Sc3sc4ccccc4c32)cc1

absorption maximum (in ClCCl): 355 nm
SMILES: CC(C)(C)Nc1c(-c2ccc(-c3cc(=O)cc(-c4ccccc4)o3)cc2)nc2ccccn12

SMILES: CN(C)c1ccc(/C=C/c2cc[n+](CCCCC[n+]3ccc(/C=C/c4ccc(N(C)C)cc4)cc3)cc2)cc1
absorption maximum (in CC1COC(=O)O1): 478 nm | absorption maximum (in CC#N): 478 nm | absorption maximum (in CC(C)=O): 476 nm | absorption maximum (in CC(C)O): 486 nm | absorption maximum (in CCO): 492 nm | absorption maximum (in CN(C)C=O): 478 nm | absorption maximum (in CO): 484 nm | absorption maximum (in CS(C)=O): 479 nm | absorption maximum (in ClC(Cl)Cl): 494 nm | absorption maximum (in O): 457 nm | absorption maximum (in c1ccncc1): 490 nm

absorption maximum (in ClC(Cl)Cl): 577 nm
SMILES: CCCCCCCCN1C(=O)c2ccc3c4c(-c5ccc6c7ccccc7n(-c7ccccc7)c6c5)cc5c6c(ccc(c7c(-c8ccc9c%10ccccc%10n(-c%10ccccc%10)c9c8)cc(c2c37)C1=O)c64)C(=O)N(CCCCCCCC)C5=O

absorption maximum (in CS(C)=O): 398 nm | absorption maximum (in O): 385 nm
SMILES: O=c1c2ccccc2[nH]c2ccccc12

absorption maximum (in ClC(Cl)Cl): 606 nm
SMILES: CN1C(=CC2=C([O-])C(=Cc3oc(-c4ccc(-c5ccccc5)cc4)c[n+]3C)C2=O)C(C)(C)c2ccccc21

SMILES: CC1(C)c2ccccc2N(c2ccc(C(=C(C#N)C#N)c3ccc(N4c5ccccc5C(C)(C)c5ccccc54)cc3)cc2)c2ccccc21
absorption maximum (in Cc1ccccc1): 436 nm

absorption maximum (in ClC(Cl)Cl): 412 nm
SMILES: c1cc2ccc3sc4ccc5cccc6c(c1)c2c3c4c56

absorption maximum (in C1CCOC1): 411 nm | absorption maximum (in CC#N): 412 nm | absorption maximum (in CCO): 410 nm | absorption maximum (in CS(C)=O): 410 nm | absorption maximum (in ClCCl): 413 nm
SMILES: c1ccc2c(c1)c1ccccc1c1[nH]c(-c3ccc(-c4nc5c6ccccc6c6ccccc6c5[nH]4)cc3)nc21

absorption maximum (in C1CCOC1): 436 nm
SMILES: CN(C)c1ccc(C(=Cc2ccc(/C=C(\C#N)c3ccccc3)cc2)c2ccc(N(C)C)cc2)cc1

absorption maximum (in ClCCl): 350 nm
SMILES: COc1ccc(-c2cnc(/C=C/c3ccccc3)o2)cc1OC

absorption maximum (in C1CCOC1): 392 nm
SMILES: N#Cc1c(N2CCCCC2)cc(-c2ccccc2)c2c1-c1ccccc1C2=O

SMILES: CC[N+]1(CC)CN2C(=N1)C(C(=O)O)=Cc1cc(Oc3ccccc3)ccc12
absorption maximum (in O): 387 nm

absorption maximum (in CC#N): 332.4 nm | absorption maximum (in CCCCO): 333.3 nm | absorption maximum (in CCO): 332.2 nm | absorption maximum (in CO): 332.4 nm | absorption maximum (in ClCCl): 333.6 nm | absorption maximum (in O): 331.2 nm
SMILES: COc1ccc2cc([C@H](C)C(=O)O)ccc2c1

absorption maximum (in C1CCOC1): 353 nm
SMILES: N#Cc1c(N2CCCC2)cc(-c2ccccc2)c2c1-c1ccccc1C2

SMILES: Cc1ccc(N2C(c3ccccc3NS(=O)(=O)c3ccc(C)cc3)=NC(c3ccccc3)C2c2ccccc2)cc1 (centres undefined)
absorption maximum (in Cc1ccccc1): 300 nm

SMILES: CCCCCCCCCCCCC(CCCCCCCCCC)Cn1c2cc(/C=C/c3nc4ccccc4s3)c3cccc4c5cccc6c(/C=C/c7nc8ccccc8s7)cc1c(c65)c2c34 (centres undefined)
absorption maximum (in C1CCCCC1): 517 nm | absorption maximum (in CC#N): 516 nm | absorption maximum (in Cc1ccccc1): 524 nm | absorption maximum (in ClCCl): 521 nm

absorption maximum (in C1CCCCC1): 417 nm | absorption maximum (in CC#N): 416 nm | absorption maximum (in CO): 414 nm | absorption maximum (in ClCCl): 418 nm
SMILES: COc1c2ccccc2c(OC)c2c1c1c(C)ccc(OC)c1n2C

absorption maximum (in ClC(Cl)Cl): 526 nm
SMILES: CCC1=C(C)C2C(c3ccc(-c4ccc(-c5nc6c7ccccc7c7ccccc7c6n5-c5ccc(C(C)(C)C)cc5)cc4)cc3)c3c(C)c(CC)c(C)n3[B-](F)(F)[N+]2=C1C (centres undefined)

SMILES: c1ccc(-c2cc(-c3ccc4ccc5c(-c6ccnc(-c7ccccn7)c6)ccc6ccc3c4c65)ccn2)nc1
absorption maximum (in C1CCOC1): 362 nm | absorption maximum (in CC#N): 360 nm | absorption maximum (in CCC#N): 360 nm | absorption maximum (in CCCC#N): 360 nm | absorption maximum (in CCCCCC): 361 nm | absorption maximum (in CCCO): 361 nm | absorption maximum (in CCO): 361 nm | absorption maximum (in CO): 363 nm | absorption maximum (in Cc1ccccc1): 362 nm

absorption maximum (in CS(C)=O): 350 nm
SMILES: COc1cccc(-c2nc3sc4ccccc4c3s2)c1

SMILES: COc1ccc(C2=C(c3ccc(OC)cc3)C(c3ccccc3)=[N+]3C2=Nc2c(-c4ccc(OC)cc4)c(-c4ccc(OC)cc4)c(-c4ccccc4)n2[B-]3(F)F)cc1
absorption maximum (in Cc1ccccc1): 654 nm

absorption maximum (in C1CCCCC1): 382 nm | absorption maximum (in CC#N): 381 nm | absorption maximum (in CO): 372 nm | absorption maximum (in ClCCl): 380 nm | absorption maximum (in O): 390 nm
SMILES: c1ccc(-c2nc(-c3c[nH]c4ccccc34)n3ccccc23)cc1

SMILES: COc1ccc2c3ccc(OC)cc3n(-c3ccc(-c4nnc(-c5c(C(C)C)cc(C(C)C)cc5C(C)C)o4)cc3)c2c1
absorption maximum (in Cc1ccccc1): 319 nm

SMILES: CN(CCO)c1ccc(/C=C/C2=C(C#N)C(C(C#N)C#N)OC2(C)C)cc1 (centres undefined)
absorption maximum (in CC#N): 586 nm | absorption maximum (in CC(C)=O): 574 nm | absorption maximum (in CCO): 579 nm | absorption maximum (in CCOC(C)=O): 565 nm | absorption maximum (in CN(C)C=O): 588 nm | absorption maximum (in CO): 575 nm | absorption maximum (in CS(C)=O): 595 nm | absorption maximum (in Cc1ccccc1): 562 nm | absorption maximum (in ClCCl): 575 nm | absorption maximum (in O): 587 nm

absorption maximum (in CC#N): 339 nm
SMILES: c1ccc(N(c2ccccc2)c2ccc(-c3nc4ccccc4n3-c3ccccc3)cc2)cc1

SMILES: CCN(CC)c1ccc2cc(-c3cc(SC)c(C#N)c(=O)o3)c(=O)oc2c1
absorption maximum (in C1CCOC1): 512 nm | absorption maximum (in CC#N): 514 nm | absorption maximum (in CC(C)=O): 514 nm | absorption maximum (in CCOC(C)=O): 509 nm | absorption maximum (in CN(C)C=O): 521 nm | absorption maximum (in CO): 514 nm | absorption maximum (in CS(C)=O): 527 nm | absorption maximum (in Cc1ccccc1): 509 nm | absorption maximum (in ClC(Cl)Cl): 517 nm | absorption maximum (in ClCCl): 520 nm

absorption maximum (in ClCCl): 468 nm
SMILES: CCCc1c(C(=O)c2ccc3c4c(cccc24)-c2cccc4c2C3CC=C4)c2ccc3cccc4c5cccc6ccc1c(c65)c2c34 (centres undefined)
